Test results published in ChEMBL document CHEMBL3991601, “The target landscape of clinical kinase drugs” (Science, 2017).
Activity calls are given as the source filed them.

What was measured:
[1] = molecular target: Mitogen-activated protein kinase kinase kinase kinase 5 (Homo sapiens, UniProt Q9Y4K4)
[2] = molecular target: T1, Serine/threonine-protein kinase D3 (Homo sapiens, UniProt O94806)
T1 sequence (O94806 whole entry): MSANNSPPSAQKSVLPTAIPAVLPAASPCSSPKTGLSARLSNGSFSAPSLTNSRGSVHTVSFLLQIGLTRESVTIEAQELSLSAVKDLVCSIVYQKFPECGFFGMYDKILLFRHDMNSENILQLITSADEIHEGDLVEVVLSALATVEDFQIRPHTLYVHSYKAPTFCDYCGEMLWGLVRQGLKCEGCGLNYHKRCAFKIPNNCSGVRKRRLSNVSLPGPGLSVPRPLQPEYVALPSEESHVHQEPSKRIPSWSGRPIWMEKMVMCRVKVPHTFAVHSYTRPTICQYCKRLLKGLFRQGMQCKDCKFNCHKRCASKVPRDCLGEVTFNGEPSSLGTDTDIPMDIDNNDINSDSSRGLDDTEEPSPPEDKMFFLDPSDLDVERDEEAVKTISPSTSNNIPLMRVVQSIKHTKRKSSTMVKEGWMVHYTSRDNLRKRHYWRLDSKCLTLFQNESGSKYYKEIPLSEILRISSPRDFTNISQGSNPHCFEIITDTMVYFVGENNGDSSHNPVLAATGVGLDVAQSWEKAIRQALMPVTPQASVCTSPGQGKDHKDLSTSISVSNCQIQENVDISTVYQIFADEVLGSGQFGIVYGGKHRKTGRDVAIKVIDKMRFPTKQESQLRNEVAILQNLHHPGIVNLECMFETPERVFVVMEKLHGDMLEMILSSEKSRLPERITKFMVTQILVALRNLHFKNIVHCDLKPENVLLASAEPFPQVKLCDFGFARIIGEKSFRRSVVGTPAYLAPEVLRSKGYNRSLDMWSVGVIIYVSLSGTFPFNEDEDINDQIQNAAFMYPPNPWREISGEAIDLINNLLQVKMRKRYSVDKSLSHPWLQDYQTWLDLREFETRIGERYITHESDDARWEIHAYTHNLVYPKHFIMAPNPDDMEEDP

[3] = molecular target: Casein kinase I isoform alpha (Homo sapiens, UniProt P48729)
[4] = molecular target: Serine/threonine-protein kinase 26 (Homo sapiens, UniProt Q9P289)
[5] = molecular target: ATP-dependent RNA helicase DDX3X (Homo sapiens, UniProt O00571)
[6] = molecular target: Tyrosine-protein kinase FRK (Homo sapiens, UniProt P42685)
[7] = molecular target: T2, Pyridoxal kinase (Homo sapiens, UniProt O00764)
T2 sequence (O00764 whole entry): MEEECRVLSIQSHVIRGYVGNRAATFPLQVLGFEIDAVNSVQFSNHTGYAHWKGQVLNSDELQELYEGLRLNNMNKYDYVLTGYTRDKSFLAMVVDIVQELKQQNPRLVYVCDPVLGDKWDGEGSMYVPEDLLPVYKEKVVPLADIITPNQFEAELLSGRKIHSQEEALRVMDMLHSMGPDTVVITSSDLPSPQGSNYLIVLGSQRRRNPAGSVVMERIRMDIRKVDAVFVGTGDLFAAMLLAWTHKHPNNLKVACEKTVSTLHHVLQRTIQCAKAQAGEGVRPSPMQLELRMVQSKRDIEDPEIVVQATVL

[8] = molecular target: Chromodomain-helicase-DNA-binding protein 4 (Homo sapiens, UniProt Q14839)
[9] = molecular target: T3, Calcium/calmodulin-dependent protein kinase type IV (Homo sapiens, UniProt Q16566)
T3 sequence (Q16566 whole entry): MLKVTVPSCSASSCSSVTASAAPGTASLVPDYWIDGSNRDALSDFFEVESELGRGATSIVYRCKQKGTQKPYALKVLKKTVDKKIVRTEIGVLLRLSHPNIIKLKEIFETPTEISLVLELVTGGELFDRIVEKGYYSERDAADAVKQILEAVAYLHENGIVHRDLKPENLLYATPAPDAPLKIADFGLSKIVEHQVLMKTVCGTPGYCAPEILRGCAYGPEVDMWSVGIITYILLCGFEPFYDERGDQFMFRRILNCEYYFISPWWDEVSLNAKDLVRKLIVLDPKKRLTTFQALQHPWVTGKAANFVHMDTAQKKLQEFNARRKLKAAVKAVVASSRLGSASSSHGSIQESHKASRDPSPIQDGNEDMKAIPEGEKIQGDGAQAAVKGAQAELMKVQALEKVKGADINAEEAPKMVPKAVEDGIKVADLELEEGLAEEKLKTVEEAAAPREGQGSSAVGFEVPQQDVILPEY

[10] = molecular target: Insulin-like growth factor 1 receptor (Homo sapiens, UniProt P08069)
[11] = molecular target: Tyrosine-protein kinase Fer (Homo sapiens, UniProt P16591)
[12] = molecular target: Serine/threonine-protein kinase PAK 4 (Homo sapiens, UniProt O96013)
[13] = molecular target: Tyrosine-protein kinase BTK (Homo sapiens, UniProt Q06187)
[14] = molecular target: Adenosine kinase (Homo sapiens, UniProt P55263)
[15] = molecular target: T4, MAP kinase-activated protein kinase 5 (Homo sapiens, UniProt Q8IW41)
T4 sequence (Q8IW41 whole entry): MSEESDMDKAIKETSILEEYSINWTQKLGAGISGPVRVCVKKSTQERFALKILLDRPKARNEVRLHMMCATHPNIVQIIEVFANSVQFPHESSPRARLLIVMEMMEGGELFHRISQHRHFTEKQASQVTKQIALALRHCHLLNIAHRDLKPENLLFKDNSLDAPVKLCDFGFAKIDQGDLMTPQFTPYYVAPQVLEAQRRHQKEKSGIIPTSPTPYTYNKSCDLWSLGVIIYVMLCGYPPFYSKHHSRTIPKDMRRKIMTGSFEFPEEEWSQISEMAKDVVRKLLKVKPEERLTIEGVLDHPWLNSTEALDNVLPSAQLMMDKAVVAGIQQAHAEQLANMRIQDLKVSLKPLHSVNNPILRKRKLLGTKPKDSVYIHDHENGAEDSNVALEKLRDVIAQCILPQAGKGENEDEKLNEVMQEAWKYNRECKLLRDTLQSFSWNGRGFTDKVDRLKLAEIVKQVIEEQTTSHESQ
Further: in the data inactive means no Kd found up to 30 µM.

Chain of Adenosine kinase (P55263 whole entry): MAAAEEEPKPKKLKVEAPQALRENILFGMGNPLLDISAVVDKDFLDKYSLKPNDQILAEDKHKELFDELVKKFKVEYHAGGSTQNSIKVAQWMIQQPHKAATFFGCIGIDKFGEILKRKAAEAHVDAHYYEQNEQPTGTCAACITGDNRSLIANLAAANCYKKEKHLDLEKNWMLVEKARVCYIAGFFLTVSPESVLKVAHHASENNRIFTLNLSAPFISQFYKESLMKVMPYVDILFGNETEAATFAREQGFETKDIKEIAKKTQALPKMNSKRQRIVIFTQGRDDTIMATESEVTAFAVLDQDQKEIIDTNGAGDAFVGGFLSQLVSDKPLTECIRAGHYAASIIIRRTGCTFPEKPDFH
Chain of Insulin-like growth factor 1 receptor (P08069 31-736 limits assumed): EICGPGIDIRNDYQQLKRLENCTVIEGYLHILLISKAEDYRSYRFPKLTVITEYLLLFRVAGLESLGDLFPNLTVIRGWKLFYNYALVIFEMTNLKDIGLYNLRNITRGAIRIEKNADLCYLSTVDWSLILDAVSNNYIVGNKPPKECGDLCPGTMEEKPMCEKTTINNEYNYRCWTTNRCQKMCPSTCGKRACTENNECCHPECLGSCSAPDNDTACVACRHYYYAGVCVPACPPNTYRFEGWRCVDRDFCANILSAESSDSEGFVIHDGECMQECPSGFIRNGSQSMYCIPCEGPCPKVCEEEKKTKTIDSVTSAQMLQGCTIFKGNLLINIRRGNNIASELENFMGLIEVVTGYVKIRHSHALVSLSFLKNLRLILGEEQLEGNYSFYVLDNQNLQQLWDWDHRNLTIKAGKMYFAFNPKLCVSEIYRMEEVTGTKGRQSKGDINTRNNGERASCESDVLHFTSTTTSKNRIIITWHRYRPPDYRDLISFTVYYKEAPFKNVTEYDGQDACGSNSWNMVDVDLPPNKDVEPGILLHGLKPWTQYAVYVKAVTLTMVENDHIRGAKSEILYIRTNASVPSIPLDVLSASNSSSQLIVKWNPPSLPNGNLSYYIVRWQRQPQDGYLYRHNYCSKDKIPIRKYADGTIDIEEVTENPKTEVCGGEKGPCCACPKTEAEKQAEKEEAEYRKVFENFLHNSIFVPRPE
Chain of Insulin-like growth factor 1 receptor (P08069 741-1367 limits assumed): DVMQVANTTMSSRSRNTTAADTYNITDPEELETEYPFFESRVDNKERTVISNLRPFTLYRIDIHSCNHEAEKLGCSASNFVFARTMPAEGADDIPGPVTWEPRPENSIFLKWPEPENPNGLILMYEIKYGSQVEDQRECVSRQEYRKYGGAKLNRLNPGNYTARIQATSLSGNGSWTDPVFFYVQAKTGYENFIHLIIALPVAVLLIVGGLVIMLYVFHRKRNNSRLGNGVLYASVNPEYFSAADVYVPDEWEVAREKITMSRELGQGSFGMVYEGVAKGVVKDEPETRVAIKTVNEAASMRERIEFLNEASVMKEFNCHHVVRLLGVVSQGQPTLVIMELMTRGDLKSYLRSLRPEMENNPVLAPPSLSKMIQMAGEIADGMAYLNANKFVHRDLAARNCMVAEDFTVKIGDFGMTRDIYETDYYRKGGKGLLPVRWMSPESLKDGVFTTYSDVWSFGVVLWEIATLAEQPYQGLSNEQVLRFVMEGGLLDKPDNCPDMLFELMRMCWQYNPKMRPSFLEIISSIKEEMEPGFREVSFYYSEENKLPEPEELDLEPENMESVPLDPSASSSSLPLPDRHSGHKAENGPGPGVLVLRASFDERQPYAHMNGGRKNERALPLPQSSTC
Chain of ATP-dependent RNA helicase DDX3X (O00571 whole entry): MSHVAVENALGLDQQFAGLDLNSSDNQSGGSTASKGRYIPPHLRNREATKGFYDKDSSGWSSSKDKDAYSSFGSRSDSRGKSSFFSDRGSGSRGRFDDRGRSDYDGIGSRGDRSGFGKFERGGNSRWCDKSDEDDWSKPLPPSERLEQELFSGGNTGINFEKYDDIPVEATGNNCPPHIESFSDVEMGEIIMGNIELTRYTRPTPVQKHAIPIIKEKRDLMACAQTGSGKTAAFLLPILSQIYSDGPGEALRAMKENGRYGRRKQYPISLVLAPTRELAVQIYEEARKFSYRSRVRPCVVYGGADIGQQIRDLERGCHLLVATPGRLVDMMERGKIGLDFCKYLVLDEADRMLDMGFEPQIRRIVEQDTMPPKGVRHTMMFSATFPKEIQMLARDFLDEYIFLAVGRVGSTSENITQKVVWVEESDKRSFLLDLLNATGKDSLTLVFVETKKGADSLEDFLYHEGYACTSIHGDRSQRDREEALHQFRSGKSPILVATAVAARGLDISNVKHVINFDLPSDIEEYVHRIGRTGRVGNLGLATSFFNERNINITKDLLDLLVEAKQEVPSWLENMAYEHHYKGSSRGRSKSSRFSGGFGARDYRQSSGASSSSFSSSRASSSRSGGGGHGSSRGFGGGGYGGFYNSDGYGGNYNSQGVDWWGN
Chain of Tyrosine-protein kinase BTK (Q06187 whole entry): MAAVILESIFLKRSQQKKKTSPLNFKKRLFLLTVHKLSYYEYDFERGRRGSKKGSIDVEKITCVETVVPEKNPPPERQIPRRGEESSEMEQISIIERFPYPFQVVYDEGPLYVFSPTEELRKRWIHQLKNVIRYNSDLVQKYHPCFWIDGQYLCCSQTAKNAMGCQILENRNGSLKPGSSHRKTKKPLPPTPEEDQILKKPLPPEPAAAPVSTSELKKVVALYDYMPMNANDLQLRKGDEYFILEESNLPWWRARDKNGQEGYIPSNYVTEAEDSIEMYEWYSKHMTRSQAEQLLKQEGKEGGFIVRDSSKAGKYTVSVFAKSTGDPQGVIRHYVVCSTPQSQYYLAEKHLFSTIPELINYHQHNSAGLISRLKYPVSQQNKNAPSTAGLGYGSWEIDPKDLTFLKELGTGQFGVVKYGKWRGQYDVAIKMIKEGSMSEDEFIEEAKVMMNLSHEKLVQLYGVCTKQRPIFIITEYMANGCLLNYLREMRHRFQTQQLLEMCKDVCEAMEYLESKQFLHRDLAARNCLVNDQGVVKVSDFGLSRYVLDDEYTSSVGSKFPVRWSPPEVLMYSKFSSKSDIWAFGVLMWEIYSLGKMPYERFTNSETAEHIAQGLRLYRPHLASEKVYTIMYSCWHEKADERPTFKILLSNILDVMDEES
Chain of Tyrosine-protein kinase Fer (P16591 whole entry): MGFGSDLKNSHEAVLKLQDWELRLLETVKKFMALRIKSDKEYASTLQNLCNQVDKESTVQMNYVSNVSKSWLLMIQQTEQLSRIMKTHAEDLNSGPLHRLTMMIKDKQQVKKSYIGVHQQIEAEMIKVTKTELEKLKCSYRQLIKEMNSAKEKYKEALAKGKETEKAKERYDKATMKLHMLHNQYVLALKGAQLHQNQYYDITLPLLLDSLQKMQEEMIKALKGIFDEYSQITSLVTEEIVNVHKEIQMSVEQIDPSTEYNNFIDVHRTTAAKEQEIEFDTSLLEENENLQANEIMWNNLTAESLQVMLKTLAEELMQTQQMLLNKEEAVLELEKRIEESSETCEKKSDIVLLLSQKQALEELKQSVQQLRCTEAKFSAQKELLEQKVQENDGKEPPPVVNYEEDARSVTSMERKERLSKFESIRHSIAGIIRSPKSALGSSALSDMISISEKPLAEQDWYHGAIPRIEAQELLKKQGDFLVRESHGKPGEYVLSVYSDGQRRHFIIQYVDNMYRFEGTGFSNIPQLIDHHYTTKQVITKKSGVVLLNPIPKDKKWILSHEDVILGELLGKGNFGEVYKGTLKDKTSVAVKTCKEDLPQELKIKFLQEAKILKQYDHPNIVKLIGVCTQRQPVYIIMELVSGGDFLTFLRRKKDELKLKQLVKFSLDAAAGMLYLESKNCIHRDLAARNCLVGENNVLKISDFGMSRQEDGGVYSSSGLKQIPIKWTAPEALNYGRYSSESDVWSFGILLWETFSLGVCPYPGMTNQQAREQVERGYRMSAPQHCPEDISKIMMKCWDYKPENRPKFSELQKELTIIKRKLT
Chain of Serine/threonine-protein kinase PAK 4 (O96013 whole entry): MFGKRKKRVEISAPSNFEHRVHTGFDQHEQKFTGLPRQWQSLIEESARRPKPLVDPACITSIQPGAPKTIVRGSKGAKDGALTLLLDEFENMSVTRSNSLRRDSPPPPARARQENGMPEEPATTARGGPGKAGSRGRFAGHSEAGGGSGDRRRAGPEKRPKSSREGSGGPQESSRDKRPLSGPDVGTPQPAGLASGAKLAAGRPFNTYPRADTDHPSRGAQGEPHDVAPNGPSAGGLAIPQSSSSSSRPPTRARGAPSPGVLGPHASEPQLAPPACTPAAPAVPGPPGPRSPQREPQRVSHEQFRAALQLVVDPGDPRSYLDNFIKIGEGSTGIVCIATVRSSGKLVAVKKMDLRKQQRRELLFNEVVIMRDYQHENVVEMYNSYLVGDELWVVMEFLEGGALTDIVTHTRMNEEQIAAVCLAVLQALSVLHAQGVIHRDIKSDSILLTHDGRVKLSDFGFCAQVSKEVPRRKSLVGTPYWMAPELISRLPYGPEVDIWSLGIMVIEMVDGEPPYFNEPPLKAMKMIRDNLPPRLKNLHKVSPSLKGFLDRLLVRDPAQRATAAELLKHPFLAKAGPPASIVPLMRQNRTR
Chain of Casein kinase I isoform alpha (P48729 whole entry, canonical isoform): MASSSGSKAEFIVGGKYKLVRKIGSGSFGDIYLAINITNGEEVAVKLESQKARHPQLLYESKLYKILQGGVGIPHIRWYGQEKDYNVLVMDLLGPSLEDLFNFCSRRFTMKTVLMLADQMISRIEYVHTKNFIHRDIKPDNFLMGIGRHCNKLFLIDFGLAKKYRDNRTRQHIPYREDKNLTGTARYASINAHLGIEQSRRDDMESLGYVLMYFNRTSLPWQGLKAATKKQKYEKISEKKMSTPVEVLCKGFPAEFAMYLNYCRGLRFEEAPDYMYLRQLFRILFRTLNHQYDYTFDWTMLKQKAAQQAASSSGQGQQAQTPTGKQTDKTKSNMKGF

SMILES	Kd [1]	Kd [2]	Kd [3]	Kd [4]	Kd [5]	Kd [6]	Kd [7]	Kd [8]	Kd [9]	Kd [10]	Kd [11]	Kd [12]	Kd [13]	Kd [14]	Kd [15]
Cc1cc2c(F)c(Oc3ncnn4cc(OC[C@@H](C)OC(=O)[C@H](C)N)c(C)c34)ccc2[nH]1 [BRIVANIB ALANINATE]	> 30 µM (inactive)	> 30 µM (inactive)	> 30 µM (inactive)	> 30 µM (inactive)	> 30 µM (inactive)	> 30 µM (inactive)	> 30 µM (inactive)	> 30 µM (inactive)	> 30 µM (inactive)	> 30 µM (inactive)	> 30 µM (inactive)	> 30 µM (inactive)	> 30 µM (inactive)	> 30 µM (inactive)	
CCc1cnn2c(NCc3ccc[n+]([O-])c3)cc(N3CCCC[C@H]3CCO)nc12 [DINACICLIB]	> 30 µM (inactive)			0.098 µM (active)	> 30 µM (inactive)	> 30 µM (inactive)	> 30 µM (inactive)	0.003 µM	> 30 µM (inactive)		> 30 µM (inactive)			> 30 µM (inactive)	> 30 µM (inactive)
CN1CCN(c2ccc3nc(-c4c(N)c5c(F)cccc5[nH]c4=O)[nH]c3c2)CC1 [DOVITINIB]					> 30 µM (inactive)		> 30 µM (inactive)	> 30 µM (inactive)						> 30 µM (inactive)	
CO[C@H]1C[C@@H]2CC[C@@H](C)[C@@](O)(O2)C(=O)C(=O)N2CCCC[C@H]2C(=O)O[C@H]([C@H](C)C[C@@H]2CC[C@@H](OCCO)[C@H](OC)C2)CC(=O)[C@H](C)/C=C(\C)[C@@H](O)[C@@H](OC)C(=O)[C@H](C)C[C@H](C)/C=C/C=C/C=C/1C [EVEROLIMUS]	> 30 µM (inactive)	> 30 µM (inactive)	> 30 µM (inactive)	> 30 µM (inactive)	> 30 µM (inactive)	> 30 µM (inactive)	> 30 µM (inactive)	> 30 µM (inactive)	> 30 µM (inactive)	> 30 µM (inactive)	> 30 µM (inactive)	> 30 µM (inactive)	> 30 µM (inactive)	> 30 µM (inactive)	
COCCNCc1ccc(-c2cc3nccc(Oc4ccc(NC(=S)NC(=O)Cc5ccc(F)cc5)cc4F)c3s2)nc1 [GLESATINIB]	> 30 µM (inactive)	> 30 µM (inactive)	> 30 µM (inactive)	> 30 µM (inactive)	> 30 µM (inactive)	1.1 µM (active)	> 30 µM (inactive)	> 30 µM (inactive)	> 30 µM (inactive)	> 30 µM (inactive)	> 30 µM (inactive)	> 30 µM (inactive)	> 30 µM (inactive)	> 30 µM (inactive)	
COC(=O)[C@@]1(O)C[C@H]2O[C@]1(C)n1c3ccccc3c3c4c(c5c6ccccc6n2c5c31)C(=O)NC4 [K-252A]	0.193 µM (active)		> 30 µM (inactive)	> 30 µM (inactive)	> 30 µM (inactive)	> 30 µM (inactive)	> 30 µM (inactive)	> 30 µM (inactive)	> 30 µM (inactive)	> 30 µM (inactive)	0.455 µM (active)	0.344 µM (active)	1.57 µM (active)	> 30 µM (inactive)	> 30 µM (inactive)
Cc1cn(-c2cc(NC(=O)c3ccc(C)c(Nc4nccc(-c5cccnc5)n4)c3)cc(C(F)(F)F)c2)cn1 [NILOTINIB]					> 30 µM (inactive)		> 30 µM (inactive)	> 30 µM (inactive)						> 30 µM (inactive)	
CN(C)C(=O)c1cc2cnc(Nc3ccc(N4CCNCC4)cn3)nc2n1C1CCCC1 [RIBOCICLIB]	> 30 µM (inactive)	> 30 µM (inactive)	> 30 µM (inactive)	> 30 µM (inactive)	> 30 µM (inactive)	> 30 µM (inactive)	> 30 µM (inactive)	> 30 µM (inactive)	> 30 µM (inactive)	> 30 µM (inactive)	> 30 µM (inactive)	> 30 µM (inactive)	> 30 µM (inactive)	> 30 µM (inactive)	
O=C(Nc1cccc(Cl)c1)Nc1ncc(CCNc2ncnc3ccsc23)s1 [SNS-314]				> 30 µM (inactive)	> 30 µM (inactive)		> 30 µM (inactive)	> 30 µM (inactive)	> 30 µM (inactive)					> 30 µM (inactive)	
Nc1nc(N)c2nc(-c3cccc(O)c3)c(-c3cccc(O)c3)nc2n1 [TG100-115]					> 30 µM (inactive)		5.25 µM (active)	> 30 µM (inactive)						> 30 µM (inactive)	
COc1cc2nccc(Oc3ccc(NC(=O)Nc4cc(C)on4)c(Cl)c3)c2cc1OC [TIVOZANIB]		> 30 µM (inactive)	> 30 µM (inactive)	> 30 µM (inactive)	> 30 µM (inactive)		> 30 µM (inactive)	> 30 µM (inactive)	> 30 µM (inactive)	> 30 µM (inactive)	> 30 µM (inactive)	> 30 µM (inactive)	> 30 µM (inactive)	> 30 µM (inactive)	

Continued, values first:

Kd [1]	Kd [2]	Kd [3]	Kd [4]	Kd [5]	Kd [6]	Kd [7]	Kd [8]	Kd [9]	Kd [10]	Kd [11]	Kd [12]	Kd [13]	Kd [14]	Kd [15]	SMILES
			0.013 µM	> 30 µM (inactive)		> 30 µM (inactive)	> 30 µM (inactive)	> 30 µM (inactive)					> 30 µM (inactive)		Cc1nc(N)sc1-c1ccnc(Nc2ccc(N3CCOCC3)cc2)n1 [CYC-116]
				> 30 µM (inactive)		> 30 µM (inactive)	> 30 µM (inactive)	> 30 µM (inactive)		> 30 µM (inactive)		> 30 µM (inactive)	> 30 µM (inactive)		Cc1cc(Nc2cc(N3CCN(C)CC3)nc(/C=C/c3ccccc3)n2)n[nH]1 [ENMD-2076]
				> 30 µM (inactive)		> 30 µM (inactive)	> 30 µM (inactive)						> 30 µM (inactive)		CCn1c(-c2nonc2N)nc2c(C#CC(C)(C)O)ncc(OC[C@H]3CCCNC3)c21 [GSK-690693]
> 30 µM (inactive)			> 30 µM (inactive)	> 30 µM (inactive)	> 30 µM (inactive)	> 30 µM (inactive)	> 30 µM (inactive)	> 30 µM (inactive)		> 30 µM (inactive)			> 30 µM (inactive)	> 30 µM (inactive)	OCCn1cc(-c2cnc3nnn(Cc4ccc5ncccc5c4)c3n2)cn1 [PF-04217903]
